Measurements taken from the supplement of paper PMC11451515.

Assays:
Conditions in all cases: 48 h
SEM cells [1] = assay: AUC of viability dose-response curve (% viability x log10 dose units); higher = less sensitive
Summary of the method: (§1)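 Library compounds in DMSO were applied for 48 h at 37°C at 11 threefold doses (47 μM to 0.79 nM) to medium-adapted leukemia cells in 1536-well plates holding 500 or 1000 cells/well. Luminescence from CellTiter-Glo One was normalised plate by plate against DMSO and cell-free wells. Area under the curve came from trapezoidal integration of a log-logistic fit, after scaling curves that rose above full viability and discarding those that failed quality control. The fit had four parameters and used log10 doses.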

NOMO1 [2] = assay: as above
Summary of the method: as §1

P12-Ichikawa [3] = assay: as above
Summary of the method: as §1

SEM cells [4] = assay: cell viability relative to DMSO control; higher = less cytotoxic
Summary of the method: (§2)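 NOMO1 or SEM (500 cells/well) or P12-Ichikawa (1000 cells/well) leukemia cells were adapted for at least four passages in each medium. They were seeded in 1536-well plates (5 μl) and pin-dosed with library compounds in DMSO over an 11-point threefold series, 47 μM to 0.79 nM. CellTiter-Glo One luminescence was read after 48 h at 37°C. Viability is the per-plate percentage relative to DMSO wells, with cell-free wells as background.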

NOMO1 [5] = assay: as above
Summary of the method: as §2

P12-Ichikawa [6] = assay: as above
Summary of the method: as §2

CC(C)(F)C[C@H](N[C@@H](c1ccc(-c2ccc([S+](C)(=O)[O-])cc2)cc1)C(F)(F)F)C(=O)NC1(C#N)CC1
AUC of viability dose-response curve
Conditions | NOMO1 [2] | P12-Ichikawa [3] | SEM cells [1]
HPLM + 10% dialyzed FBS | 467 | 471 | 454
RPMI 5 mM glucose + 10% FBS | 427 | 471 | 452
RPMI 5 mM glucose + 10% dialyzed FBS | 446 | 474 | 475

cell viability [%]
Conditions | NOMO1 [5] | P12-Ichikawa [6] | SEM cells [4]
HPLM + 10% dialyzed FBS, 0.000781 µM | 91.5 | 106 | 88.3
HPLM + 10% dialyzed FBS, 0.00234 µM | 113 | 120 | 93.8
HPLM + 10% dialyzed FBS, 0.00702 µM | 111 | 111 | 93.1
HPLM + 10% dialyzed FBS, 0.0211 µM | 113 | 112 | 96.1
HPLM + 10% dialyzed FBS, 0.0632 µM | 108 | 115 | 95.9
HPLM + 10% dialyzed FBS, 0.19 µM | 103 | 117 | 91
HPLM + 10% dialyzed FBS, 0.569 µM | 107 | 124 | 96.3
HPLM + 10% dialyzed FBS, 1.71 µM | 116 | 115 | 97.5
HPLM + 10% dialyzed FBS, 5.12 µM | 111 | 112 | 104
HPLM + 10% dialyzed FBS, 15.4 µM | 94.6 | 110 | 95.9
HPLM + 10% dialyzed FBS, 46.1 µM | 89.8 | 98.7 | 91.6
RPMI 5 mM glucose + 10% FBS, 0.000781 µM | 124 | 99.9 | 90.4
RPMI 5 mM glucose + 10% FBS, 0.00234 µM | 136 | 114 | 116
RPMI 5 mM glucose + 10% FBS, 0.00702 µM | 125 | 111 | 112
RPMI 5 mM glucose + 10% FBS, 0.0211 µM | 124 | 121 | 117
RPMI 5 mM glucose + 10% FBS, 0.0632 µM | 119 | 120 | 114
RPMI 5 mM glucose + 10% FBS, 0.19 µM | 116 | 111 | 105
RPMI 5 mM glucose + 10% FBS, 0.569 µM | 109 | 112 | 93.1
RPMI 5 mM glucose + 10% FBS, 1.71 µM | 115 | 109 | 109
RPMI 5 mM glucose + 10% FBS, 5.12 µM | 106 | 113 | 96.5
RPMI 5 mM glucose + 10% FBS, 15.4 µM | 97.5 | 106 | 90.3
RPMI 5 mM glucose + 10% FBS, 46.1 µM | 102 | 98.7 | 85.8
RPMI 5 mM glucose + 10% dialyzed FBS, 0.000781 µM | 105 | 93.8 | 105
RPMI 5 mM glucose + 10% dialyzed FBS, 0.00234 µM | 125 | 115 | 117
RPMI 5 mM glucose + 10% dialyzed FBS, 0.00702 µM | 117 | 106 | 124
RPMI 5 mM glucose + 10% dialyzed FBS, 0.0211 µM | 121 | 106 | 107
RPMI 5 mM glucose + 10% dialyzed FBS, 0.0632 µM | 103 | 121 | 119
RPMI 5 mM glucose + 10% dialyzed FBS, 0.19 µM | 108 | 111 | 126
RPMI 5 mM glucose + 10% dialyzed FBS, 0.569 µM | 112 | 111 | 108
RPMI 5 mM glucose + 10% dialyzed FBS, 1.71 µM | 109 | 111 | 114
RPMI 5 mM glucose + 10% dialyzed FBS, 5.12 µM | 101 | 109 | 115
RPMI 5 mM glucose + 10% dialyzed FBS, 15.4 µM | 101 | 101 | 123
RPMI 5 mM glucose + 10% dialyzed FBS, 46.1 µM | 92.3 | 99.5 | 103

CC(C)=CCC/C(C)=C/CC/C(C)=C/CC/C(C)=C/CC/C(C)=C/CC/C(C)=C/CC/C(C)=C/CC/C(C)=C/CC/C(C)=C/CO
AUC of viability dose-response curve
Conditions | NOMO1 [2] | P12-Ichikawa [3] | SEM cells [1]
HPLM + 10% dialyzed FBS | 450 | 467 | 475
RPMI 5 mM glucose + 10% FBS | 462 | 457 | 436
RPMI 5 mM glucose + 10% dialyzed FBS | 455 | 465 | 431

cell viability [%]
Conditions | NOMO1 [5] | P12-Ichikawa [6] | SEM cells [4]
HPLM + 10% dialyzed FBS, 0.000781 µM | 117 | 107 | 94.8
HPLM + 10% dialyzed FBS, 0.00234 µM | 123 | 109 | 109
HPLM + 10% dialyzed FBS, 0.00702 µM | 105 | 108 | 103
HPLM + 10% dialyzed FBS, 0.0211 µM | 92.7 | 112 | 99.7
HPLM + 10% dialyzed FBS, 0.0632 µM | 107 | 116 | 91.2
HPLM + 10% dialyzed FBS, 0.19 µM | 114 | 109 | 98.9
HPLM + 10% dialyzed FBS, 0.569 µM | 112 | 109 | 115
HPLM + 10% dialyzed FBS, 1.71 µM | 117 | 108 | 77.8
HPLM + 10% dialyzed FBS, 5.12 µM | 100 | 104 | 100
HPLM + 10% dialyzed FBS, 15.4 µM | 96.6 | 93.4 | 85.5
HPLM + 10% dialyzed FBS, 46.1 µM | 102 | 106 | 119
RPMI 5 mM glucose + 10% FBS, 0.000781 µM | 95.7 | 105 | 109
RPMI 5 mM glucose + 10% FBS, 0.00234 µM | 96.3 | 103 | 105
RPMI 5 mM glucose + 10% FBS, 0.00702 µM | 108 | 115 | 121
RPMI 5 mM glucose + 10% FBS, 0.0211 µM | 100 | 103 | 96.9
RPMI 5 mM glucose + 10% FBS, 0.0632 µM | 101 | 108 | 104
RPMI 5 mM glucose + 10% FBS, 0.19 µM | 105 | 98.7 | 111
RPMI 5 mM glucose + 10% FBS, 0.569 µM | 115 | 105 | 114
RPMI 5 mM glucose + 10% FBS, 1.71 µM | 104 | 97.1 | 60.7
RPMI 5 mM glucose + 10% FBS, 5.12 µM | 92.6 | 91.3 | 107
RPMI 5 mM glucose + 10% FBS, 15.4 µM | 92.8 | 87.1 | 60.5
RPMI 5 mM glucose + 10% FBS, 46.1 µM | 88.3 | 96.1 | 102
RPMI 5 mM glucose + 10% dialyzed FBS, 0.000781 µM | 92.2 | 98.3 | 99.4
RPMI 5 mM glucose + 10% dialyzed FBS, 0.00234 µM | 91 | 100 | 99.6
RPMI 5 mM glucose + 10% dialyzed FBS, 0.00702 µM | 111 | 92.7 | 95.6
RPMI 5 mM glucose + 10% dialyzed FBS, 0.0211 µM | 93.6 | 99.6 | 102
RPMI 5 mM glucose + 10% dialyzed FBS, 0.0632 µM | 103 | 103 | 105
RPMI 5 mM glucose + 10% dialyzed FBS, 0.19 µM | 113 | 102 | 100
RPMI 5 mM glucose + 10% dialyzed FBS, 0.569 µM | 94.4 | 106 | 108
RPMI 5 mM glucose + 10% dialyzed FBS, 1.71 µM | 95.6 | 97.3 | 61.6
RPMI 5 mM glucose + 10% dialyzed FBS, 5.12 µM | 91.6 | 87.9 | 78.4
RPMI 5 mM glucose + 10% dialyzed FBS, 15.4 µM | 87.7 | 95.9 | 63.4
RPMI 5 mM glucose + 10% dialyzed FBS, 46.1 µM | 86.9 | 90.3 | 89.3

CCOC(=O)C(C#N)C\1C2=CC(=CC=C2O\C(=C1C(=O)OCC)N)Br (centres undefined)
AUC of viability dose-response curve
Conditions | NOMO1 [2] | P12-Ichikawa [3] | SEM cells [1]
HPLM + 10% dialyzed FBS | 445 | 467 | 450
RPMI 5 mM glucose + 10% FBS | 449 | 452 | 462
RPMI 5 mM glucose + 10% dialyzed FBS | 447 | 463 | 421

cell viability [%]
Conditions | NOMO1 [5] | P12-Ichikawa [6] | SEM cells [4]
HPLM + 10% dialyzed FBS, 0.000781 µM | 113 | 100 | 93.4
HPLM + 10% dialyzed FBS, 0.00234 µM | 120 | 103 | 102
HPLM + 10% dialyzed FBS, 0.00702 µM | 110 | 108 | 117
HPLM + 10% dialyzed FBS, 0.0211 µM | 99.9 | 92.8 | 49.8
HPLM + 10% dialyzed FBS, 0.0632 µM | 114 | 103 | 113
HPLM + 10% dialyzed FBS, 0.19 µM | 104 | 103 | 99.9
HPLM + 10% dialyzed FBS, 0.569 µM | 96.1 | 99.1 | 99.5
HPLM + 10% dialyzed FBS, 1.71 µM | 107 | 104 | 105
HPLM + 10% dialyzed FBS, 5.12 µM | 117 | 105 | 95.1
HPLM + 10% dialyzed FBS, 15.4 µM | 92.4 | 94.6 | 86.1
HPLM + 10% dialyzed FBS, 46.1 µM | 97.5 | 75.7 | 63.8
RPMI 5 mM glucose + 10% FBS, 0.000781 µM | 97.8 | 104 | 113
RPMI 5 mM glucose + 10% FBS, 0.00234 µM | 90.3 | 102 | 116
RPMI 5 mM glucose + 10% FBS, 0.00702 µM | 97.5 | 106 | 114
RPMI 5 mM glucose + 10% FBS, 0.0211 µM | 87.9 | 88.5 | 44.5
RPMI 5 mM glucose + 10% FBS, 0.0632 µM | 99.3 | 106 | 116
RPMI 5 mM glucose + 10% FBS, 0.19 µM | 102 | 117 | 117
RPMI 5 mM glucose + 10% FBS, 0.569 µM | 107 | 103 | 113
RPMI 5 mM glucose + 10% FBS, 1.71 µM | 91.5 | 102 | 113
RPMI 5 mM glucose + 10% FBS, 5.12 µM | 94.5 | 97.9 | 101
RPMI 5 mM glucose + 10% FBS, 15.4 µM | 83.7 | 90 | 98
RPMI 5 mM glucose + 10% FBS, 46.1 µM | 82.4 | 89.4 | 57.6
RPMI 5 mM glucose + 10% dialyzed FBS, 0.000781 µM | 99.1 | 101 | 84.8
RPMI 5 mM glucose + 10% dialyzed FBS, 0.00234 µM | 95.1 | 99.1 | 99.1
RPMI 5 mM glucose + 10% dialyzed FBS, 0.00702 µM | 99 | 105 | 103
RPMI 5 mM glucose + 10% dialyzed FBS, 0.0211 µM | 95.7 | 83.9 | 49.8
RPMI 5 mM glucose + 10% dialyzed FBS, 0.0632 µM | 104 | 94.9 | 108
RPMI 5 mM glucose + 10% dialyzed FBS, 0.19 µM | 83.8 | 105 | 99.1
RPMI 5 mM glucose + 10% dialyzed FBS, 0.569 µM | 94.4 | 102 | 83.6
RPMI 5 mM glucose + 10% dialyzed FBS, 1.71 µM | 94.7 | 92.7 | 105
RPMI 5 mM glucose + 10% dialyzed FBS, 5.12 µM | 96.7 | 101 | 87.2
RPMI 5 mM glucose + 10% dialyzed FBS, 15.4 µM | 80.3 | 95 | 82.3
RPMI 5 mM glucose + 10% dialyzed FBS, 46.1 µM | 82.6 | 80 | 55.2
